Measured values as given in patent US9540350B2, “1-substituted, 4-(substituted phenoxymethyl)-1,2,3-triazole compounds with antifungal properties and methods for preparation thereof” (FDC LIMITED, priority 2013, dated 2017).
≈ marks a conversion by molar mass, not a printed value. Read-outs that look alike come from different tables or passages of the source.

Key:
A. fumigatus ATCC 46645 = assay: Antifungal susceptibility, broth dilution MIC (CLSI M38-A); type: cell-based; details: Aspergillus fumigatus, read-out: Activity against organisms (MIC50) Afm01
Protocol: (§1) The compounds of Formula 1 were tested for antifungal activity against Candida albicans, C. glabrata, C. krusei, C. tropicalis, Cryptococcus neoformans, Aspergillus fumigatus, A. niger and Fusarium proliferatum. In vitro evaluation of antifungal activity was performed by determining the minimum inhibitory concentration (MIC) following standard methods (CLSI: Reference method for broth dilution antifungal susceptibility testing of yeasts; Approved standard, second edition M27-A2, 2002; CLSI: Reference method for broth dilution antifungal susceptibility testing of filamentous fungi; Approved standard M38-A, 2002). Anti-fungal susceptibility testing of these anti-fungal compounds was done by broth dilution method using RPMI 1640 medium with MOPS buffer. Known anti-fungal agent fluconazole was used as positive control. End points were determined after 48 hours visually and by using spectrophotometer wherever necessary. Different dilutions were tried and various sets of experiments performed. The activity parameters are enumerated in Table 4.

[1] = test system: F. proliferatum ATCC 10052; assay: as above; type: cell-based; details: Fusarium proliferatum, read-out: Activity against organisms (MIC50) Fp01
Protocol: as §1

A. niger ATCC 16404 = assay: as above; type: cell-based; details: Aspergillus niger, read-out: Activity against organisms (MIC50) An01
Protocol: as §1

C. neoformans ATCC 34664 = assay: Antifungal susceptibility, broth dilution MIC (CLSI M27-A2); type: cell-based, Cryptococcus neoformans; details: Cryptococcus neoformans, read-out: Activity against organisms (MIC50) Cn01
Protocol: as §1

C. glabrata ATCC 90030 = assay: as above; type: cell-based, Candida glabrata; details: Nakaseomyces glabratus, read-out: Activity against organisms (MIC50) Cg01
Protocol: as §1

C. krusei ATCC 6258 = assay: as above; type: cell-based, Candida krusei; details: Pichia kudriavzevii, read-out: Activity against organisms (MIC50) Ck01
Protocol: as §1

C. albicans ATCC 24433 = assay: as above; type: cell-based; details: Candida albicans, read-out: Activity against organisms (MIC50) Ca01
Protocol: as §1

C. tropicalis ATCC 750 = assay: as above; type: cell-based, Candida tropicalis; details: Candida tropicalis, read-out: Activity against organisms (MIC50) Ct01
Protocol: as §1

[2] = ATCC46645, A. fumigatus ATCC 46645, broth dilution, RPMI 1640 with MOPS, 48 hours
[3] = ATCC10052, F. proliferatum ATCC 10052, broth dilution, RPMI 1640 with MOPS, 48 hours
[4] = ATCC16404, A. niger ATCC 16404, broth dilution, RPMI 1640 with MOPS, 48 hours
[5] = ATCC34664, C. neoformans ATCC 34664, broth dilution, RPMI 1640 with MOPS, 48 hours
[6] = ATCC90030, C. glabrata ATCC 90030, broth dilution, RPMI 1640 with MOPS, 48 hours
[7] = ATCC6258, C. krusei ATCC 6258, broth dilution, RPMI 1640 with MOPS, 48 hours
[8] = ATCC24433, C. albicans ATCC 24433, broth dilution, RPMI 1640 with MOPS, 48 hours
[9] = ATCC750, C. tropicalis ATCC 750, broth dilution, RPMI 1640 with MOPS, 48 hours

Row | SMILES | MIC50 (A. fumigatus ATCC 46645; [2]) | MIC50 [1, 3] | MIC50 (A. niger ATCC 16404; [4]) | MIC50 (C. neoformans ATCC 34664; [5]) | MIC50 (C. glabrata ATCC 90030; [6]) | MIC50 (C. krusei ATCC 6258; [7]) | MIC50 (C. albicans ATCC 24433; [8]) | MIC50 (C. tropicalis ATCC 750; [9]) | MIC50 (A. fumigatus ATCC 46645; ATCC46645, 48 h) | MIC50 ([1]; ATCC10052, 48 h) | MIC50 (A. niger ATCC 16404; ATCC16404, 48 h) | MIC50 (C. neoformans ATCC 34664; ATCC34664, 48 h) | MIC50 (C. glabrata ATCC 90030; ATCC90030, 48 h) | MIC50 (C. krusei ATCC 6258; ATCC6258, 48 h) | MIC50 (C. albicans ATCC 24433; ATCC24433, 48 h) | MIC50 (C. tropicalis ATCC 750; ATCC750, 48 h)
1 | O=C(/C=C/c1ccccc1)c1ccc(OCc2cn(CC(O)(Cn3cncn3)c3ccc(F)cc3F)nn2)cc1 (centres unmarked) [Compound 1A-1, (E)-1-(4-((1-(2-(2,4-Difluorophenyl)-2-hydroxy-3-(1H-1,2,4-triazol-1-yl)propyl)-1H-1,2,3-triazol-4-yl)methoxy)phenyl)-3-phenylprop-2-en-1-one] | > 8 µg/mL | > 8 µg/mL | > 8 µg/mL | 0.5 µg/mL (≈ 0.922 µM) | 0.12 µg/mL (≈ 0.221 µM) | 4 µg/mL (≈ 7.37 µM) | 0.12 µg/mL (≈ 0.221 µM) | 1 µg/mL (≈ 1.84 µM) |  |  |  |  |  |  |  | 
2 | COc1ccc(/C=C/C(=O)c2ccc(OCc3cn(CC(O)(Cn4cncn4)c4ccc(F)cc4F)nn3)cc2)cc1 (centres unmarked) [Compound 1A-2, (E)-1-(4-((1-(2-(2,4-Difluorophenyl)-2-hydroxy-3-(1H-1,2,4-triazol-1-yl)propyl)-1H-1,2,3-triazol-4-yl)methoxy)phenyl)-3-(4-methoxyphenyl)prop-2-en-1-one] | > 4 µg/mL | > 4 µg/mL | > 4 µg/mL | 1 µg/mL (≈ 1.75 µM) | 1 µg/mL (≈ 1.75 µM) | 8 µg/mL (≈ 14 µM) | 0.25 µg/mL (≈ 0.437 µM) | 2 µg/mL (≈ 3.49 µM) |  |  |  |  |  |  |  | 
3 | Cc1ccc(/C=C/C(=O)c2ccc(OCc3cn(CC(O)(Cn4cncn4)c4ccc(F)cc4F)nn3)cc2)cc1 (centres unmarked) [Compound 1A-3, (E)-1-(4-((1-(2-(2,4-Difluorophenyl)-2-hydroxy-3-(1H-1,2,4-triazol-1-yl)propyl)-1H-1,2,3-triazol-4-yl)methoxy)phenyl)-3-(4-methylphenyl)prop-2-en-1-one] | > 4 µg/mL | > 4 µg/mL | > 4 µg/mL | 0.5 µg/mL (≈ 0.898 µM) | 0.25 µg/mL (≈ 0.449 µM) | 4 µg/mL (≈ 7.19 µM) | 0.25 µg/mL (≈ 0.449 µM) | 2 µg/mL (≈ 3.59 µM) |  |  |  |  |  |  |  | 
4 | O=C(/C=C/c1cccs1)c1ccc(OCc2cn(CC(O)(Cn3cncn3)c3ccc(F)cc3F)nn2)cc1 (centres unmarked) [Compound 1A-4, (E)-1-(4-((1-(2-(2,4-Difluorophenyl)-2-hydroxy-3-(1H-1,2,4-triazol-1-yl)propyl)-1H-1,2,3-triazol-4-yl)methoxy)phenyl)-3-(2-thienyl)prop-2-en-1-one] | > 8 µg/mL | > 8 µg/mL | > 8 µg/mL | 0.5 µg/mL (≈ 0.911 µM) | 0.5 µg/mL (≈ 0.911 µM) | 4 µg/mL (≈ 7.29 µM) | 0.12 µg/mL (≈ 0.219 µM) | 1 µg/mL (≈ 1.82 µM) |  |  |  |  |  |  |  | 
5 | COc1ccc(C(=O)/C=C/c2ccc(OCc3cn(CC(O)(Cn4cncn4)c4ccc(F)cc4F)nn3)cc2)cc1 (centres unmarked) [Compound 1B-1] | > 4 µg/mL | > 4 µg/mL | > 4 µg/mL | 1 µg/mL (≈ 1.75 µM) | 0.5 µg/mL (≈ 0.873 µM) | 4 µg/mL (≈ 6.99 µM) | 0.12 µg/mL (≈ 0.21 µM) | 1 µg/mL (≈ 1.75 µM) |  |  |  |  |  |  |  | 
6 | O=C(/C=C/c1ccc(OCc2cn(CC(O)(Cn3cncn3)c3ccc(F)cc3F)nn2)cc1)c1ccc(F)cc1 (centres unmarked) [Compound 1B-2, (E)-3-(4-((1-(2-(2,4-Difluorophenyl)-2-hydroxy-3-(1H-1,2,4-triazol-1-yl)propyl)-1H-1,2,3-triazol-4-yl)methoxy)phenyl)-1-(4-fluorophenyl)prop-2-en-1-one] | > 4 µg/mL | > 4 µg/mL | > 4 µg/mL | 0.25 µg/mL (≈ 0.446 µM) | 0.5 µg/mL (≈ 0.892 µM) | 4 µg/mL (≈ 7.14 µM) | 0.06 µg/mL (≈ 0.107 µM) | 2 µg/mL (≈ 3.57 µM) |  |  |  |  |  |  |  | 
7 | CC(=O)/C=C/c1ccc(OCc2cn(CC(O)(Cn3cncn3)c3ccc(F)cc3F)nn2)cc1 (centres unmarked) [Compound 1B-3, (E)-4-(4-((1-(2-(2,4-Difluorophenyl)-2-hydroxy-3-(1H-1,2,4-triazol-1-yl)propyl)-1H-1,2,3-triazol-4-yl)methoxy)phenyl)but-3-en-2-one] |  |  |  |  |  |  |  |  | > 64 µg/mL | > 64 µg/mL | > 64 µg/mL | 2 µg/mL (≈ 4.16 µM) | 0.5 µg/mL (≈ 1.04 µM) | 16 µg/mL (≈ 33.3 µM) | 0.12 µg/mL (≈ 0.25 µM) | 1 µg/mL (≈ 2.08 µM)
8 | O=C(/C=C/c1ccc(OCc2cn(CC(O)(Cn3cncn3)c3ccc(F)cc3F)nn2)cc1)C1CC1 (centres unmarked) [Compound 1B-4, (E)-1-(Cyclopropyl)-3-(4-((1-(2-(2,4-difluorophenyl)-2-hydroxy-3-(1H-1,2,4-triazol-1-yl)propyl)-1H-1,2,3-triazol-4-yl)methoxy)phenyl)prop-2-en-1-one] | > 32 µg/mL | > 32 µg/mL | > 32 µg/mL | 1 µg/mL (≈ 1.97 µM) | 0.5 µg/mL (≈ 0.987 µM) | > 32 µg/mL | 0.12 µg/mL (≈ 0.237 µM) | 2 µg/mL (≈ 3.95 µM) |  |  |  |  |  |  |  | 
9 | CCCN1CCN(c2ccc(C(=O)/C=C/c3ccc(OCc4cn(CC(O)(Cn5cncn5)c5ccc(F)cc5F)nn4)cc3)cc2)CC1 (centres unmarked) [Compound 1B-5, (E)-3-(4-((1-(2-(2,4-Difluorophenyl)-2-hydroxy-3-(1H-1,2,4-triazol-1-yl)propyl)-1H-1,2,3-triazol-4-yl)methoxy)phenyl)-1-(4-(4-propylpiperazin-1-yl)phenyl)prop-2-en-1-one] | > 4 µg/mL | > 4 µg/mL | > 4 µg/mL | 1 µg/mL (≈ 1.5 µM) | 0.5 µg/mL (≈ 0.748 µM) | > 4 µg/mL | 0.06 µg/mL (≈ 0.0897 µM) | 0.5 µg/mL (≈ 0.748 µM) |  |  |  |  |  |  |  | 
10 | CCCCN1CCN(c2ccc(C(=O)/C=C/c3ccc(OCc4cn(CC(O)(Cn5cncn5)c5ccc(F)cc5F)nn4)cc3)cc2)CC1 (centres unmarked) [Compound 1B-6, (E)-1-(4-(4-n-Butylpiperazin-1-yl)phenyl)-3-(4-((1-(2-(2,4-difluorophehyl)-2-hydroxy-3-(1H-1,2,4-triazol-1-yl)propyl)-1H-1,2,3-triazol-4-yl)methoxy)phenyl)prop-2-en-1-one] | > 4 µg/mL | > 4 µg/mL | > 4 µg/mL | 1 µg/mL (≈ 1.46 µM) | 0.5 µg/mL (≈ 0.732 µM) | > 4 µg/mL | 0.12 µg/mL (≈ 0.176 µM) | 0.5 µg/mL (≈ 0.732 µM) |  |  |  |  |  |  |  | 
11 | CCCCCN1CCN(c2ccc(C(=O)/C=C/c3ccc(OCc4cn(CC(O)(Cn5cncn5)c5ccc(F)cc5F)nn4)cc3)cc2)CC1 (centres unmarked) [Compound 1B-7, (E)-3-(4-((1-(2-(2,4-Difluorophenyl)-2-hydroxy-3-(1H-1,2,4-triazol-1-yl)propyl)-1H-1,2,3-triazol-4-yl)methoxy)phenyl)-1-(4-(4-n-pentylpiperazin-1-yl)phenyl)-prop-2-en-1-one] | > 2 µg/mL | > 2 µg/mL | > 2 µg/mL | 2 µg/mL (≈ 2.87 µM) | 0.5 µg/mL (≈ 0.718 µM) | 8 µg/mL (≈ 11.5 µM) | 0.5 µg/mL (≈ 0.718 µM) | 2 µg/mL (≈ 2.87 µM) |  |  |  |  |  |  |  | 
12 | COc1ccc(CN2CCN(c3ccc(C(=O)/C=C/c4ccc(OCc5cn(CC(O)(Cn6cncn6)c6ccc(F)cc6F)nn5)cc4)cc3)CC2)cc1 (centres unmarked) [Compound 1B-8, (E)-3-(4-((1-(2-(2,4-Difluorophenyl)-2-hydroxy-3-(1H-1,2,4-triazol-1-yl)propyl)-1H-1,2,3-triazol-4-yl)methoxy)phenyl)-1-(4-(4-(4-methoxybenzyl)piperazin-1-yl)phenyl)prop-2-en-1-one] | > 8 µg/mL | > 8 µg/mL | > 8 µg/mL | 0.5 µg/mL (≈ 0.67 µM) | 0.12 µg/mL (≈ 0.161 µM) | 2 µg/mL (≈ 2.68 µM) | 0.12 µg/mL (≈ 0.161 µM) | 0.5 µg/mL (≈ 0.67 µM) |  |  |  |  |  |  |  | 
13 | C=C=CCOc1ccc(/C=C/C(=O)/C=C/c2ccc(OCc3cn(CC(O)(Cn4cncn4)c4ccc(F)cc4F)nn3)cc2)cc1 (centres unmarked) [Compound 1B-9, (1E,4E)-1-(4-(Buta-2,3-dienyloxy)phenyl)-5-(4-((1-(2-(2,4-difluorophenyl)-2-hydroxy-3-(1H-1,2,4-triazol-1-yl)propyl)-1H-1,2,3-triazol-4-yl)methoxy)phenyl)penta-1,4-dien-3-one] | > 2 µg/mL | > 2 µg/mL | > 2 µg/mL | 0.25 µg/mL (≈ 0.393 µM) | 0.5 µg/mL (≈ 0.785 µM) | 2 µg/mL (≈ 3.14 µM) | 0.25 µg/mL (≈ 0.393 µM) | 1 µg/mL (≈ 1.57 µM) |  |  |  |  |  |  |  | 
